Molecules are shown by their SMILES.

The first series is described as follows: Critical micelle concentration (CMC) by Wilhelmy plate method, K100C Force Tensiometer. It is filed as physicochemical. To be noted: 25° C., pH 3. The method, then:
As a parameter for the surfactant properties of the novel amine-N-oxide compounds, as usual, the critical micelle concentration (CMC), i.e. the concentration of the protonated or cationic form of the surfactants at which micelles can form was used and was determined using a K100C Force Tensiometer from Krüss Scientific according to the Wilhelmy plate method at 25° C. and pH 3. For comparison, dodecyldimethylamine N-oxide (“C1”) was measured under the same conditions.
On to `CCCCCCCCOc1c(C[N+](C)(C)[O-])cc(CC)cc1OC` [Compound 1, N,N-dimethyl-1-(5-ethyl-3-methoxy-2-octyloxyphenyl)methanamine N-oxide], for which the CMC value came out at 4.1 mM.

The series is the same for the next values; noted with them: critical micelle concentration of the protonated or cationic form; Wilhelmy plate method, 25° C., pH 3.
Compound `CCCCCCCCOc1c(C[N+](C)(C)[O-])cc(CC)cc1OC` [Compound 1, N,N-dimethyl-1-(5-ethyl-3-methoxy-2-octyloxyphenyl)methanamine N-oxide] came in with a CMC of 4.1 mmol/L.

For the compound `CCCCCCCCCCOc1c(C[N+](C)(C)[O-])cc(CC)cc1OC` [Compound 2, N,N-dimethyl-1-(2-decyloxy-5-ethyl-3-methoxyphenyl)methanamine N-oxide], the CMC worked out at 570 mmol/L.

For the compound `CCCCCCCCCCCCOc1c(C[N+](C)(C)[O-])cc(CC)cc1OC` [Compound 3, N,N-dimethyl-1-(2-dodecyloxy-5-ethyl-3-methoxyphenyl)methanamine N-oxide], the CMC was found to be 89 mmol/L.

Take `CCCCCCCCCCCCCCOc1c(C[N+](C)(C)[O-])cc(CC)cc1OC` [Compound 4, N,N-dimethyl-1-(5-ethyl-3-methoxy-2-tetradecyloxyphenyl)methanamine N-oxide]: the CMC is 5.2 mmol/L.

`CCCCCCCCCCCCCCCCOc1c(C[N+](C)(C)[O-])cc(CC)cc1OC` [Compound 5, N,N-dimethyl-1-(5-ethyl-2-hexadecyloxy-3-methoxyphenyl)methanamine N-oxide] came in with a CMC of 4.0 mmol/L.

Compound `CCCCCCCCCCCCCCCCCCOc1c(C[N+](C)(C)[O-])cc(CC)cc1OC` [Compound 6, N,N-dimethyl-1-(5-ethyl-3-methoxy-2-octadecyloxyphenyl)methanamine N-oxide] displayed a CMC of 1.3 mmol/L.

Compound `CCCCCCCCCCCCOc1c(C[N+]2([O-])CCCC2)cc(CC)cc1OC` [Compound 7, 1-(2-dodecyloxy-5-ethyl-3-methoxybenzyl)pyrrolidine-1-oxide] returned a CMC of 36 mmol/L.

In turn, `CCCCCCCCCCCCOc1c(C[N+]2([O-])CCCCC2)cc(CC)cc1OC` [Compound 8, 1-(2-dodecyloxy-5-ethyl-3-methoxybenzyl)piperidine-1-oxide] gave a CMC of 130 mmol/L.

For the compound `CCCCCCCCCCCCOc1c(C[N+](C)(C)[O-])cc(CC)cc1C[N+](C)(C)[O-]` [Compound 13, 1,1′-(2-dodecyloxy-5-ethyl-1,3-phenylene)-bis(N,N-dimethylmethanamine N-oxide)], the CMC is 190 mmol/L.

Turning to `CCCCCCCCCCCCCCCCOc1c(C[N+](C)(C)[O-])cc(CC)cc1C[N+](C)(C)[O-]` [Compound 14, 1,1′-(5-ethyl-2-hexadecyloxy-1,3-phenylene)-bis(N,N-dimethylmethanamine N-oxide)], the CMC is 75 mmol/L.

For the compound `CCCCCCCCCCCCCCCCCCOc1c(C[N+](C)(C)[O-])cc(CC)cc1C[N+](C)(C)[O-]` [Compound 15, 1,1′-(5-ethyl-2-octadecyloxy-1,3-phenylene)-bis(N,N-dimethylmethanamine N-oxide)], the CMC is 29 mmol/L.

`CCCCCCCCCCCC[N+](C)(C)[O-]` [Compound C1, dodecyldimethylamine N-oxide, reference compound] had a CMC of 4200 mmol/L.

Still in this series, the particulars now being: second value of the cell, for (3)*; asterisk not explained; otherwise 25° C., pH 3.
Take `CCCCCCCCCCCCOc1c(C[N+](C)(C)[O-])cc(CC)cc1OC` [Compound 3, N,N-dimethyl-1-(2-dodecyloxy-5-ethyl-3-methoxyphenyl)methanamine N-oxide]: the “CMC, value marked (3)*” value was 19 mmol/L.

The record behind these values is US20240383840A1, “AMINE-N-OXIDE COMPOUNDS” (Karl Franzens Universität Graz, priority 2021, published 2024).
